The numbers were not newly measured in US8680094B2, “1, 4-benzoxazine compounds and derivatives thereof as therapeutic drugs for the treatment of neurodegenerative conditions” (Board of Regents, The University of Texas System, priority 2008, dated 2014), which cites them from elsewhere.

Series [1] deals with 3-NP-induced mouse model of Huntington's disease. The conditions noted are these: earlier work (Chin et al., 2004); cited from earlier work.
Series [2] has as its target GSK3β (Homo sapiens, UniProt P49841). To be noted: stated for the reference compound, no value; cited from earlier work.
Series [3] relates to cultured neurons. To be noted: Chin et al., 2004, cited from earlier work.

Sequence of GSK3β (P49841 whole entry, species assumed): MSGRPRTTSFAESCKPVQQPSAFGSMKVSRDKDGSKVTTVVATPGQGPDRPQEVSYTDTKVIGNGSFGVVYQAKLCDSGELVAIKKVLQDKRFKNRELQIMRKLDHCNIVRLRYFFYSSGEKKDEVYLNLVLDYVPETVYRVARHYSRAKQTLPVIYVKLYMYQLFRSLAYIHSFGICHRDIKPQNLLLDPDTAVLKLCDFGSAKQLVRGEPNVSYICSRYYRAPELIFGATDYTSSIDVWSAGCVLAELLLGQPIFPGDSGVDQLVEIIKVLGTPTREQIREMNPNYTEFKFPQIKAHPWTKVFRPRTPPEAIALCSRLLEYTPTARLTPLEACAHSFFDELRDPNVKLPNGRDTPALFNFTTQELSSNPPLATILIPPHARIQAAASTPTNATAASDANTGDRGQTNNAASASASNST

As to `O=C1Nc2ccc(I)cc2C1=Cc1cc(Br)c(O)c(Br)c1` [GW5074, 5-Iodo-3-[(3′,5′-dibromo-4′-hydroxyphenyl)methylene]-2-indolinone], in series [1], the “behavioral performance in mice administered with 3-nitropropionic acid” value is on record as “improves behavioral performance” and the “striatal degeneration in mice administered with 3-nitropropionic acid” value is on record as “prevents striatal degeneration”. Also, the “inhibition of GSK3β” value in series [2] is reported as “inhibits GSK3β weakly”. Further, the “death of cultured neurons induced by a variety of different apoptotic stimuli” value in series [3] was “completely inhibits”. Also, the “toxicity to cultured neurons” value in series [3] (at higher concentrations, Johnson et al., 2005, Chen et al., 2008) is “display toxicity”.
